Measurements reported in patent publication US20240376097A1, “BCL-2 Inhibitor” (BeiGene Ltd., priority 2020, published 2024).
Where two headings read alike, the source gives them in different places.

Legend:
[1] = molecular target: Recombinant human Bcl-2 protein (Homo sapiens (Human), UniProt P10415); assay: Bcl-2 TR-FRET Assay; format: binding
How it was run: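 Compounds were pre-incubated with 0.05 nM recombinant Bcl-2 for 0.5 h at room temperature in potassium phosphate buffer, pH 7.5. FITC-Bak peptide (0.5 nM) and Tb-cryptate antibody were then added for 1 h. Percent inhibition from TR-FRET signals gave IC50 values.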

[2] = molecular target: recombinant human Bcl-2-G101V protein (Homo sapiens (Human), UniProt P10415, G101V); assay: Bcl-2-G101V TR-FRET Assay; format: binding; settings: Bcl-2 G101V mutant, TR-FRET; read-out: Biochemical assay (IC50, nM) Bcl-2 G101V
How it was run: (§1)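 Percent inhibition of the Bcl-2-G101V–ligand interaction was computed from the 490 nm to 520 nm emission ratio after 337 nm excitation, over increasing compound concentrations; a four-parameter logistic fit gave IC50.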

[3] = test system: recombinant human Bcl-2-G101V protein; assay: Bcl-2-G101V TR-FRET Assay; format: binding; settings: for Ratio of Bcl-2 G101V/WT: ratio of biochemical IC50 Bcl-2 G101V / Bcl-2 WT
How it was run: as §1

[4] = test system: RS4;11 (BCL-2 dependent acute lymphoblastic leukemia cell line); assay: RS4;11 Cell Proliferation Assay; format: cell-based; settings: read-out: Cellular proliferation assay (IC50, nM) RS4
How it was run: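 RS4;11 cells, 50,000 per well in RPMI-1640 with 10% FBS, treated 48 h at 37 °C with a 10-point dilution series topping at 1 μM. Viability read by CellTiter-Glo ATP luminescence; mean IC50 reported.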

[5] = test system: BCL-2 G101V knock-in cell line H96 (derive from RS4;11); assay: Bcl 2-G101V Knock-In RS4;11 Cell Proliferation Assay; format: cell-based; settings: Homo sapiens, RS4;11 Bcl-2 G101V knock-in clone H96, 48 hrs, CellTiter-GLO, read-out: Cellular proliferation assay (IC50, nM) RS4
How it was run: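 H96, a CRISPR-generated RS4;11 clone carrying BCL2-G101V knock-in (WES/RNA-seq validated), seeded 50,000 per well and exposed 48 h at 37 °C to 10-point dilutions topping at 1 or 10 μM. Viability by CellTiter-Glo luminescence; mean IC50.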

[6] = molecular target: recombinant human Bcl-2 D103Y protein (Homo sapiens (Human), UniProt P10415, D103Y); assay: Bcl-2-D103Y Biochemical Assay (TR-FRET); format: binding; settings: for IC50: TR-FRET, FITC labeled Bak peptide; for Ratio of Bcl-2 D103Y/Bcl-2 WT: ratio of IC50
How it was run: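 Recombinant human Bcl-2 D103Y binding to its ligand measured by TR-FRET (ex 337 nm, em 490/520 nm) with increasing compound concentrations. Percent inhibition from the 490/520 nm ratio; IC50 from four-parameter logistic fit.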

[7] = Bcl-2 wild type, TR-FRET, read-out: Biochemical assay (IC50, nM) Bcl-2 WT
[8] = wild type Bcl-2, unit inferred, read-out: Bcl-2 WT
[9] = Homo sapiens, RS4-11, RS4;11 cells

| Structure (SMILES) | IC50 [1, 7] | IC50 [1, 8] | IC50 [2] | Ratio of Bcl-2 G101V/WT [3] | IC50 [4, 9] | IC50 [5] | IC50 [6] | Ratio of Bcl-2 D103Y/Bcl-2 WT [6] | ratio of IC50 of Bcl-2 G101V/Bcl-2 wt, compared with Example F132b in WO2019210828 and ABT-199 (venetoclax) ([3]; comparison in words) | IC50 ([4]; RS4;11 cells) | ratio of Bcl-2 D103Y/Bcl-2 wt, compared with F91b in WO2019210828 ([6]; comparison in words) |
| --- | --- | --- | --- | --- | --- | --- | --- | --- | --- | --- | --- |
| COc1ccc(CN2CCN(C3CC4(CCN(c5ccc(C(=O)NS(=O)(=O)c6ccc(NC[C@H]7CC[C@](C)(O)CC7)c([N+](=O)[O-])c6)c(Oc6cnc7[nH]ccc7c6)c5)CC4)C3)C(c3ccccc3C3CC3)C2)cc1 (stereo partly drawn) [Example 73, 2-((1H-pyrrolo[2,3-b]pyridin-5-yl)oxy)-4-(2-(2-(2-cyclopropylphenyl)-4-(4-methoxybenzyl)piperazin-1-yl)-7-azaspiro[3.5]nonan-7-yl)-N-((4-((((1r,4r)-4-hydroxy-4-methylcyclohexyl)methyl)amino)-3-nitrophenyl)sulfonyl)benzamide] | 0.06 nM | 0.06 nM | 0.47 nM | 7.9 | 0.37 nM | 2.4 nM | 0.31 nM | 5.1 | – | – | – |
| CC(C)c1ccccc1C1CN(C(C)c2ccccc2)CCN1C1CC2(CCN(c3ccc(C(=O)NS(=O)(=O)c4ccc(NC[C@H]5CC[C@](C)(O)CC5)c([N+](=O)[O-])c4)c(Oc4cnc5[nH]ccc5c4)c3)CC2)C1 (single isomer, unassigned) [Example 24b, 2-((1H-pyrrolo[2,3-b]pyridin-5-yl)oxy)-N-((4-((((1r,4r)-4-hydroxy-4-methylcyclohexyl)methyl)amino)-3-nitrophenyl)sulfonyl)-4-(2-(2-(2-isopropylphenyl)-4-(1-phenylethyl)piperazin-1-yl)-7-azaspiro[3.5]nonan-7-yl)benzamide] | 0.24 nM | 0.24 nM | 1.1 nM | 4.6 | – | 6.49 nM | 0.56 nM | 2.3 | much lower | 0.75 nM | significantly lower |
| CC(C)c1ccccc1C1CN(Cc2ccc3c(c2)OCCO3)CCN1C1CC2(CCN(c3ccc(C(=O)NS(=O)(=O)c4ccc(NC[C@H]5CC[C@](C)(O)CC5)c([N+](=O)[O-])c4)c(Oc4cnc5[nH]ccc5c4)c3)CC2)C1 (stereo partly drawn) [Example 78, 2-((1H-pyrrolo[2,3-b]pyridin-5-yl)oxy)-4-(2-(4-((2,3-dihydrobenzo[b] [1,4]dioxin-6-yl)methyl)-2-(2-isopropylphenyl)piperazin-1-yl)-7-azaspiro[3.5]nonan-7-yl)-N-((4-((((1r,4r)-4-hydroxy-4-methylcyclohexyl)methyl)amino)-3-nitrophenyl)sulfonyl)benzamide] | 0.21 nM | 0.21 nM | 0.98 nM | 4.6 | 0.42 nM | 2.6 nM | 0.62 nM | 2.9 | – | – | – |
| COc1cc(CN2CCN(C3CC4(CCN(c5ccc(C(=O)NS(=O)(=O)c6ccc(NC[C@H]7CC[C@](C)(O)CC7)c([N+](=O)[O-])c6)c(Oc6cnc7[nH]cc(F)c7c6)c5)CC4)C3)[C@H](c3ccccc3C(C)C)C2)cc2c1OCC2 [Example 303] | 0.11 nM | 0.11 nM | 0.26 nM | 2.3 | 0.3 nM | 0.52 nM | 0.16 nM | 1.4 | – | – | – |
| COc1ccc(CN2CCN(C3CC4(CCN(c5ccc(C(=O)NS(=O)(=O)c6ccc(NC[C@H]7CC[C@](C)(O)CC7)c([N+](=O)[O-])c6)c(Oc6cnc7[nH]ccc7c6)c5)CC4)C3)C(c3ccccc3C(C)C)C2)cc1C(C)=O (stereo partly drawn) [Example 212, 2-((1H-pyrrolo[2,3-b]pyridin-5-yl)oxy)-4-(2-(4-(3-acetyl-4-methoxybenzyl)-2-(2-isopropylphenyl)piperazin-1-yl)-7-azaspiro[3.5]nonan-7-yl)-N-((4-((((1r,4r)-4-hydroxy-4-methylcyclohexyl)methyl)amino)-3-nitrophenyl)sulfonyl)benzamide] | 0.13 nM | – | 0.54 nM | 4.2 | 0.3 nM | 2.15 nM | – | – | – | – | – |
| CC(C)c1ccccc1[C@@H]1CN(Cc2ccc3c(c2)OCC3)CCN1C1CC2(C1)CN(c1ccc(C(=O)NS(=O)(=O)c3ccc(NC[C@H]4CC[C@](C)(O)CC4)c([N+](=O)[O-])c3)c(Oc3cnc4[nH]cc(F)c4c3)c1)C2 [Example 297, 4-(6-((R)-4-((2,3-dihydrobenzofuran-6-yl)methyl)-2-(2-isopropylphenyl)piperazin-1-yl)-2-azaspiro[3.3]heptan-2-yl)-2-((3-fluoro-1H-pyrrolo[2,3-b]pyridin-5-yl)oxy)-N-((4-((((1r,4r)-4-hydroxy-4-methylcyclohexyl)methyl)amino)-3-nitrophenyl)sulfonyl)benzamide] | 0.13 nM | – | 0.4 nM | 3.0 | 0.25 nM | 1.16 nM | – | – | – | – | – |
| CCc1ccc(CN2CCN(C3CC4(CCN(c5ccc(C(=O)NS(=O)(=O)c6ccc(NC[C@H]7CC[C@](C)(O)CC7)c([N+](=O)[O-])c6)c(Oc6cnc7[nH]ccc7c6)c5)CC4)C3)[C@H](c3ccccc3C(C)C)C2)cc1OC [Example 265, 2-((1H-pyrrolo[2,5-b]pyridin-5-yl)oxy)-4-(2-((R)-4-(4-ethyl-3-methoxybenzyl)-2-(2-isopropylphenyl)piperazin-1-yl)-7-azaspiro[3.5]nonan-7-yl)-N-((4-((((1r,4r)-4-hydroxy-4-methylcyclohexyl)methyl)amino)-3-nitrophenyl)sulfonyl)benzamide] | 0.66 nM | – | 1.9 nM | 3 | 0.15 nM | 0.65 nM | – | – | – | – | – |
| COc1cc(CN2CCN(C3CC4(C3)CN(c3ccc(C(=O)NS(=O)(=O)c5ccc(NC[C@H]6CC[C@](C)(O)CC6)c([N+](=O)[O-])c5)c(Oc5cnc6[nH]ccc6c5)c3)C4)[C@H](c3ccccc3C(C)C)C2)cc2c1OCCC2(C)C [Example 334] | 0.12 nM | – | 0.33 nM | 2.8 | 0.17 nM | 0.65 nM | – | – | – | – | – |
| CC(C)c1ccccc1[C@@H]1CN(Cc2ccc3c(c2)OCC3)CCN1C1CC2(C1)CN(c1ccc(C(=O)NS(=O)(=O)c3ccc(NC[C@H]4CC[C@](C)(O)CC4)c([N+](=O)[O-])c3)c(Oc3cnc4[nH]ccc4c3)c1)C2 [Example 298, 2-((1H-pyrrolo[2,3-b]pyridin-5-yl)oxy)-4-(6-((R)-4-((2,3-dihydrobenzofuran-6-yl)methyl)-2-(2-isopropylphenyl)piperazin-1-yl)-2-azaspiro[3.3]heptan-2-yl)-N-((4-((((1r,4r)-4-hydroxy-4-methylcyclohexyl)methyl)amino)-3-nitrophenyl)sulfonyl)benzamide] | 0.099 nM | – | 0.45 nM | 4.6 | 0.24 nM | 1.82 nM | – | – | – | – | – |
| CC(C)c1ccccc1[C@@H]1CN(Cc2ccc3c(c2)OCC3(C)C)CCN1C1CC2(CCN(c3ccc(C(=O)NS(=O)(=O)c4ccc(NC[C@H]5CC[C@](C)(O)CC5)c([N+](=O)[O-])c4)c(Oc4cnc5[nH]cc(F)c5c4)c3)CC2)C1 [Example 308, 4-(2-((R)-4-((3,3-dimethyl-2,3-dihydrobenzofuran-6-yl)methyl)-2-(2-isopropylphenyl)piperazin-1-yl)-7-azaspiro[3.5]nonan-7-yl)-2-((3-fluoro-1H-pyrrolo[2,3-b]pyridin-5-yl)oxy)-N-((4-((((1r,4r)-4-hydroxy-4-methylcyclohexyl)methyl)amino)-3-nitrophenyl)sulfonyl)benzamide] | 0.67 nM | – | 3.11 nM | 4.6 | 0.58 nM | 3.95 nM | – | – | – | – | – |
| CC(C)c1ccccc1C1CN(Cc2cccc(OC3CC3)c2)CCN1C1CC2(CCN(c3ccc(C(=O)NS(=O)(=O)c4ccc(NC[C@H]5CC[C@](C)(O)CC5)c([N+](=O)[O-])c4)c(Oc4cnc5[nH]ccc5c4)c3)CC2)C1 (stereo partly drawn) [Example 178, 2-((1H-pyrrolo[2,3-b]pyridin-5-yl)oxy)-4-(2-(4-(3-cyclopropoxybenzyl)-2-(2-isopropylphenyl)piperazin-1-yl)-7-azaspiro[3.5]nonan-7-yl)-N-((4-((((1r,4r)-4-hydroxy-4-methylcyclohexyl)methyl)amino)-3-nitrophenyl)sulfonyl)benzamide] | 0.52 nM | – | 1.5 nM | 2.9 | 0.64 nM | 4.87 nM | – | – | – | – | – |
